In brackets after ≈: the same amount, converted by molar mass.
Key:
Aspergillus flavus = experiment: Antifungal activity against Aspergillus flavus after 7 days at 27 degC by liquid dilution method; type: functional
Candida albicans = experiment: Antifungal activity against Candida albicans CBS 562 after 24 to 48 hrs at 37 degC by liquid dilution method; type: functional
Epidermophyton floccosum = experiment: Antifungal activity against Epidermophyton floccosum after 7 days at 27 degC by liquid dilution method; type: functional
Microsporum canis = experiment: Antifungal activity against Microsporum canis after 7 days at 27 degC by liquid dilution method; type: functional
Paecilomyces = experiment: Antifungal activity against Paecilomyces after 7 days at 27 degC by liquid dilution method; type: functional
Enterobacter cloacae = experiment: Antibacterial activity against Enterobacter cloacae ATCC 23355 after 24 to 48 hrs at 37 degC by liquid dilution method; type: functional
Escherichia coli = experiment: Antibacterial activity against Escherichia coli ATCC 25922 after 24 to 48 hrs at 37 degC by liquid dilution method; type: functional
Klebsiella pneumoniae = experiment: Antibacterial activity against Klebsiella pneumoniae ATCC 13883 after 24 to 48 hrs at 37 degC by liquid dilution method; type: functional
Proteus vulgaris = experiment: Antibacterial activity against Proteus vulgaris […] after 24 to 48 hrs at 37 degC by liquid dilution method; type: functional
Pseudomonas aeruginosa = experiment: Antibacterial activity against Pseudomonas aeruginosa ATCC 27853 after 24 to 48 hrs at 37 degC by liquid dilution method; type: functional
Ralstonia solanacearum = experiment: Antibacterial activity against Pseudomonas solanacearum after 24 to 48 hrs at 37 degC by liquid dilution method; type: functional
Salmonella typhimurium = experiment: Antibacterial activity against Salmonella Typhimurium ATCC 14028 after 24 to 48 hrs at 37 degC by liquid dilution method; type: functional, Salmonella enterica subsp. enterica serovar Typhimurium; conditions: Salmonella enterica
Serratia marcescens = experiment: Antibacterial activity against Serratia marcescens ATCC 8100 after 24 to 48 hrs at 37 degC by liquid dilution method; type: functional
Shigella dysenteriae = experiment: Antibacterial activity against Shigella dysenteriae after 24 to 48 hrs at 37 degC by liquid dilution method; type: functional
Bacillus subtilis = experiment: Antibacterial activity against Bacillus subtilis ATCC 6633 after 24 to 48 hrs at 37 degC by liquid dilution method; type: functional
[1] = test system: Mycolicibacterium smegmatis; experiment: Antibacterial activity against Mycobacterium smegmatis ATCC 607 after 24 to 48 hrs at 37 degC by liquid dilution method; type: functional
Staphylococcus aureus = experiment: Antibacterial activity against Staphylococcus aureus […] after 24 to 48 hrs at 37 degC by liquid dilution method; type: functional
Streptococcus pyogenes = experiment: Antibacterial activity against Streptococcus pyogenes ATCC 19651 after 24 to 48 hrs at 37 degC by liquid dilution method; type: functional

| Compound | MIC (Candida albicans) [µg/mL] | MIC (Enterobacter cloacae) [µg/mL] | MIC (Escherichia coli) [µg/mL] | MIC (Klebsiella pneumoniae) [µg/mL] | MIC (Proteus vulgaris) [µg/mL] | MIC (Pseudomonas aeruginosa) [µg/mL] | MIC (Ralstonia solanacearum) [µg/mL] | MIC (Salmonella typhimurium) [µg/mL] | MIC (Serratia marcescens) [µg/mL] | MIC (Shigella dysenteriae) [µg/mL] | MIC (Bacillus subtilis) [µg/mL] | MIC [1] [µg/mL] | MIC (Staphylococcus aureus) [µg/mL] | MIC (Streptococcus pyogenes) [µg/mL] | other results |
| --- | --- | --- | --- | --- | --- | --- | --- | --- | --- | --- | --- | --- | --- | --- | --- |
| NYSTATIN | 0.78 | – | – | – | – | – | – | – | – | – | – | – | – | – | MIC (Aspergillus flavus): 12.5 µg/mL; MIC (Epidermophyton floccosum): 100 µg/mL; MIC (Microsporum canis): 50 µg/mL; MIC (Paecilomyces): 50 µg/mL |
| COc1c(-c2ccc(O)c(O)c2)oc2cc(O)cc(O)c2c1=O [3-O-METHYLQUERCETIN] | 12.5 (≈ 39.5 µM) | 100 (≈ 316 µM) | 100 (≈ 316 µM) | 100 (≈ 316 µM) | 100 (≈ 316 µM) | 100 (≈ 316 µM) | 100 (≈ 316 µM) | 50 (≈ 158 µM) | 100 (≈ 316 µM) | 100 (≈ 316 µM) | 50 (≈ 158 µM) | 100 (≈ 316 µM) | 6.25 (≈ 19.8 µM) | 100 (≈ 316 µM) | MIC (Aspergillus flavus; 168 h): 100 µg/mL (≈ 316 µM); MIC (Epidermophyton floccosum; 168 h): 100 µg/mL (≈ 316 µM); MIC (Microsporum canis; 168 h): 100 µg/mL (≈ 316 µM); MIC (Paecilomyces; 168 h): 100 µg/mL (≈ 316 µM) |
| CN(C)[C@@H]1C(O)=C(C(N)=O)C(=O)[C@@]2(O)C(O)=C3C(=O)c4c(O)cccc4[C@@](C)(O)[C@H]3C[C@@H]12.Cl [TETRACYCLINE HYDROCHLORIDE] | – | 12.5 | 6.25 | 12.5 | 25 | 100 | 100 | 12.5 | 25 | 0.78 | 3.12 | 100 | 100 | 6.25 | – |
